The values below come from patent US11447484B2, “Cyclic compound having dopamine D3 receptor antagonistic effect” (Shionogi & Co., Ltd., priority 2018, dated 2022).

The structures appear in SMILES notation.

In data set [1] the target is human recombinant D2 receptor (Homo sapiens (Human), UniProt P14416). As to the kind of experiment: Test of binding inhibition for dopamine D2 receptor. The following applies: Jump-In HEK cell membranes, 1.2 nM [3H]-Methylspiperone, 120 min at 25° C.; read-out: hD2_Ki. The method, then: Test Example 2: Test of Binding Inhibition for Dopamine D2 Receptor
(§1) (Experimental Conditions)
Cell membranes: Jump-In HEK cell membranes expressing human recombinant D2 receptor (2 μg/well)
(§2) Buffer solution: 50 mM Tris-HCl (35409-45, Nacalai Tesque) (pH 7.4) containing 120 mM NaCl (31320-05, Nacalai Tesque), 1 mM MgCl2.6H2O (20909-55, Nacalai Tesque), 5 mM KCl (28514-75, Nacalai Tesque) and 2 mM CaCl2 (067-31, NAKARAI CHEMICALS, LTD.)
Radioligand: (final concentration) 1.2 nM [^3H]-Methylspiperone ([^3H—N-methyl-]-Methylspiperone, NET-856, 83.8 Ci/mmol, PerkinElmer)
Non-specific ligand: (final concentration) 10 μM Butaclamol [(+)-Butaclamol Hydrochloride, D033; Sigma]
(§3) SPA beads solution: SPA beads [WGA PVT SPA Scintillation Beads, RPNQ0001 (500 mg), RPNQ0060 (2 g), PerkinElmer] (0.2 mg/well)
(§4) Incubation time and temperature: 120 min at 25° C.
(§5) Butaclamol or the compounds of the present invention were weighed and DMSO was added to make a 10 mM solution. This solution was diluted to each concentration.
[^3H]-Methylspiperone was weighed and the buffer solution was added to make a 3.6 nM solution.
(§6) SPA beads were weighed and stirred in water to make a 50 mg/mL solution. Using this solution, a mixture with the cell membranes was prepared.
(§7) 225 nL of the solutions of the non-specific ligand or the compounds of the present invention at each concentration (in case of vehicle, final concentration 0.3% DMSO) were added in each well of a 384-well white/clear bottom microplate (3706, Corning). Jump-In HEK Cell membranes (final reaction amount: 2 μg protein/well), the SPA bead solution (final reaction amount: 0.2 mg/well) and the buffer solution were mixed and the mixed solution was left still for 1 hour or more at 4° C. Then, 50 μL of the mixture was added to each well of the plate. In addition, 25 μL of 3.6 nM [^3H]-Methylspiperone (final concentration: 1.2 nM) was added to each well. The plate was sealed by putting TopSeal-A 96/384 well (6050185, PerkinElmer) on the top of the plate, mixed using stirring deaerator (Well Tornado, FK-62, Sakaki-elc.) and incubated for 120 min at 25° C. After incubation, the radioactivity of [^3H]-Methylspiperone which was bonded to D2 receptor was determined by liquid scintillation counter (1450 Microbeta, PerkinElmer) in each well. Non-specific binding was calculated based on the radioactivity of [^3H]-Methylspiperone in the presence of 10 μM non-labeled Butaclamol. The total binding was calculated using the radioactivity of [^3H]-Methylspiperone in the absence of the compounds of the present invention (vehicle). The Ki values were calculated from dose-response curves.
(§8) Binding activities of the compounds of the present invention were calculated from the following Binding Inhibition Rate (%): Inhibition Rate(%)=[1−(c−a)/(b−a)]×100 • a: Average cpm of non-specific binding • b: Average cpm of total binding • c: Cpm in the presence of each test compound

Data set [2] concerns the target P-gp (human MDR1-expressing cells) (Homo sapiens (Human), UniProt P08183). As to the kind of experiment: P-gp substrate test. The class given is in vitro ADME. Particulars: efflux ratio (B→A/A→B) of MDR1-expressing cells compared with parent cells, Transwell monolayer. How it is done: Test Example 14: P-gp Substrate Test
The compound of the present invention was added to one side of Transwell (registered trademark, CORNING) where human MDR1-expressing cells or parent cells have been monolayer-cultured. The cells were reacted for a constant time. The membrane permeability coefficients from the apical side toward the basolateral side (A→B) and from the basolateral side toward the apical side (B→A) were calculated for the MDR1-expressing cells or the parent cells, and the efflux ratio (ER; ratio of the membrane permeability coefficients of B→A and A→B) values of the MDR1-expressing cells and the parent cells were calculated. The efflux ratio (ER) values of the MDR1-expressing cells and the parent cells were compared to confirm whether or not the compound of the present invention would be a P-gp substrate.

For data set [3], the target named is human recombinant D3 receptor (Homo sapiens (Human), UniProt P35462). As to the kind of experiment: Test of binding inhibition for dopamine D3 receptor. Particulars: Jump-In HEK cell membranes, 2 nM [3H]-Methylspiperone, 120 min at 25° C.; read-out: hD3_Ki. The method, then: Test Example 1: Test of Binding Inhibition for Dopamine D3 Receptor
as §1
Cell membranes: Jump-In HEK cell membranes expressing human recombinant D3 receptor (4 μg/well)
as §2
Radioligand: (final concentration) 2 nM [^3H]-Methylspiperone ([^3H—N-methyl-]-Methylspiperone, NET-856, 83.8 Ci/mmol, PerkinElmer)
Non-specific ligand: (final concentration) 10 μM Butaclamol [(+)-Butaclamol Hydrochloride, D033, Sigma]
as §3, §4, §5
[^3H]-Methylspiperone was weighed and the buffer solution was added to make a 6 nM solution.
as §6
as §7, with “amount: 4” for “amount: 2”, “SPA beads” for “SPA bead”, “of 6” for “of 3.6”, “concentration: 2” for “concentration: 1.2”, “(6050185, PerkinElmer, Inc.)” for “(6050185, PerkinElmer)”, “to D3” for “to D2”
as §8

human recombinant D2 receptor, sequence (P14416 whole entry): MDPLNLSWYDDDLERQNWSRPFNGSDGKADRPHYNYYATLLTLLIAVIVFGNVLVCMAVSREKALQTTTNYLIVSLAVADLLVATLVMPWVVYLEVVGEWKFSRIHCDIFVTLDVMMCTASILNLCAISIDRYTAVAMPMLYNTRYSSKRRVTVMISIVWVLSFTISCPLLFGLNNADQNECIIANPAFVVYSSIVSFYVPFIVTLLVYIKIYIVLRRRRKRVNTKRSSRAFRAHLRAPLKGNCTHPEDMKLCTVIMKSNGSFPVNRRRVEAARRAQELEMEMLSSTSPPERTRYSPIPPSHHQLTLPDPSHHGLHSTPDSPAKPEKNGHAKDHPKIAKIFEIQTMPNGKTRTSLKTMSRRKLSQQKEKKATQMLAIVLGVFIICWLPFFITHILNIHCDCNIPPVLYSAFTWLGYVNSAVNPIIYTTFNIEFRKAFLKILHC
human recombinant D3 receptor, sequence (P35462 whole entry): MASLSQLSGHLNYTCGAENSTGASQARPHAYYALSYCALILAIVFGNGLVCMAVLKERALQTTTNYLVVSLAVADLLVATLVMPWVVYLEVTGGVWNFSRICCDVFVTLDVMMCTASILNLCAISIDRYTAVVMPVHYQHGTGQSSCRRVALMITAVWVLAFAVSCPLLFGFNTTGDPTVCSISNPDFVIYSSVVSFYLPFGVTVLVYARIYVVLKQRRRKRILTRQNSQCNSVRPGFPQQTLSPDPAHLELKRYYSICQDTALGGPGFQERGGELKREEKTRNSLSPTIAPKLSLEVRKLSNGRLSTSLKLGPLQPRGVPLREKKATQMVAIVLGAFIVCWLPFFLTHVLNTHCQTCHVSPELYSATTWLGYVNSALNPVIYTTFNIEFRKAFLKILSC
P-gp (human MDR1-expressing cells), sequence (P08183 whole entry): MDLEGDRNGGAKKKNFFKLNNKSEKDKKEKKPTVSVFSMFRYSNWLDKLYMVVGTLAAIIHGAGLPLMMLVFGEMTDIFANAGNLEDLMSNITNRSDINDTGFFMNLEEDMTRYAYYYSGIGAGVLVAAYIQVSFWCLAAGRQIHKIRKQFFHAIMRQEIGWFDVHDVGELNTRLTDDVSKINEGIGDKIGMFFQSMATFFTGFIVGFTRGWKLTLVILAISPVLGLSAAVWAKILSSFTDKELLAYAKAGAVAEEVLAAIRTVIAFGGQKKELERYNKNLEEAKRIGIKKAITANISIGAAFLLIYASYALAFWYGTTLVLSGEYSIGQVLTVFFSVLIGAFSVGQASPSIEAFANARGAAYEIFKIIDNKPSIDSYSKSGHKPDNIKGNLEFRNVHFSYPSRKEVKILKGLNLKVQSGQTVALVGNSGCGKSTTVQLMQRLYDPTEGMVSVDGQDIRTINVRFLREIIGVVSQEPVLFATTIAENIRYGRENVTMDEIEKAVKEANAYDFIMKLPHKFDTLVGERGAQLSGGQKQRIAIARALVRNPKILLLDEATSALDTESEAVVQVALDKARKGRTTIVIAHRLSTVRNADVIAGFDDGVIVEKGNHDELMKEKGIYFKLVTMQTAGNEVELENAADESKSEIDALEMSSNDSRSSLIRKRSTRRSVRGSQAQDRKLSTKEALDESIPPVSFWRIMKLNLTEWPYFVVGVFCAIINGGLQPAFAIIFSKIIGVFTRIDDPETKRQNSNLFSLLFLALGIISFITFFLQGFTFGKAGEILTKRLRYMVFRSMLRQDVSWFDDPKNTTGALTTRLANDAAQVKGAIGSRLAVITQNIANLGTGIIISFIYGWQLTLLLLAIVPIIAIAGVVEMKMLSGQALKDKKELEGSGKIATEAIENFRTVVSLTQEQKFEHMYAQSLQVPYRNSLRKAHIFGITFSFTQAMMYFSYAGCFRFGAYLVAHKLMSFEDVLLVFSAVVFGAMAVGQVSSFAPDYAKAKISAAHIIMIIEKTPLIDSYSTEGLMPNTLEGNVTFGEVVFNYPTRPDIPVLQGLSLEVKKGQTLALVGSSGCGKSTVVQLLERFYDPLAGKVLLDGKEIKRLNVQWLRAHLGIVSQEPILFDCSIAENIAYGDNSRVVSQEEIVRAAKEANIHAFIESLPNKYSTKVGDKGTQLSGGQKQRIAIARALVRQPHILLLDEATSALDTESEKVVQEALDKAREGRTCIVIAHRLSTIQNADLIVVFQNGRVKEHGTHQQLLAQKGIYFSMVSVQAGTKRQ

Regarding `CCc1cc([C@]23C[C@H]2CN(CC[C@H]2CC[C@H](NC(=O)Cc4cnn(C)n4)CC2)C3)no1` [Compound I-053], the Ki was 1100 nM in data set [1] and 0.48 nM in data set [3]. For the same compound, in data set [2], the “P-gp ER ratio” value came to 1.9.
On the same counts, the results for `Cc1ncc(OCC(=O)N[C@H]2CC[C@H](CCN3C[C@@H]4C[C@]4(c4cc(C(C)(F)F)on4)C3)CC2)cn1` [Compound I-046] are 330 nM, 0.2 nM and 1.9.
